# Results taken from US10385070B2, “Chroman-spirocyclic piperidine amides as modulators of ion channels” (VERTEX PHARMACEUTICALS INCORPORATED, priority 2011, dated 2019).
# Molecular target: human NaV subtype, like NaV 1.7 (Homo sapiens, UniProt Q15858)
# Test: E-VIPR optical membrane potential assay with electrical stimulation
# Format: cell-based
# Settings: active against one or more sodium channels; assay and NaV subtype not specified for Table 3; read-out: IC50 Binned Activity Data
# Outline: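 HEK cells expressing human NaV (e.g. NaV1.7), loaded with CC2-DMPE/DiSBAC6(3) FRET dyes, compounds 20–35 min at room temperature, 0.625% DMSO, KCl 4.5–20 mM. Electrical stimulation ~9 s at 400 Hz scan; background-subtracted 460/580 nm emission ratios normalized; tetracaine 125 µM as positive control.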
# Chain of human NaV subtype, like NaV 1.7 (Q15858 whole entry): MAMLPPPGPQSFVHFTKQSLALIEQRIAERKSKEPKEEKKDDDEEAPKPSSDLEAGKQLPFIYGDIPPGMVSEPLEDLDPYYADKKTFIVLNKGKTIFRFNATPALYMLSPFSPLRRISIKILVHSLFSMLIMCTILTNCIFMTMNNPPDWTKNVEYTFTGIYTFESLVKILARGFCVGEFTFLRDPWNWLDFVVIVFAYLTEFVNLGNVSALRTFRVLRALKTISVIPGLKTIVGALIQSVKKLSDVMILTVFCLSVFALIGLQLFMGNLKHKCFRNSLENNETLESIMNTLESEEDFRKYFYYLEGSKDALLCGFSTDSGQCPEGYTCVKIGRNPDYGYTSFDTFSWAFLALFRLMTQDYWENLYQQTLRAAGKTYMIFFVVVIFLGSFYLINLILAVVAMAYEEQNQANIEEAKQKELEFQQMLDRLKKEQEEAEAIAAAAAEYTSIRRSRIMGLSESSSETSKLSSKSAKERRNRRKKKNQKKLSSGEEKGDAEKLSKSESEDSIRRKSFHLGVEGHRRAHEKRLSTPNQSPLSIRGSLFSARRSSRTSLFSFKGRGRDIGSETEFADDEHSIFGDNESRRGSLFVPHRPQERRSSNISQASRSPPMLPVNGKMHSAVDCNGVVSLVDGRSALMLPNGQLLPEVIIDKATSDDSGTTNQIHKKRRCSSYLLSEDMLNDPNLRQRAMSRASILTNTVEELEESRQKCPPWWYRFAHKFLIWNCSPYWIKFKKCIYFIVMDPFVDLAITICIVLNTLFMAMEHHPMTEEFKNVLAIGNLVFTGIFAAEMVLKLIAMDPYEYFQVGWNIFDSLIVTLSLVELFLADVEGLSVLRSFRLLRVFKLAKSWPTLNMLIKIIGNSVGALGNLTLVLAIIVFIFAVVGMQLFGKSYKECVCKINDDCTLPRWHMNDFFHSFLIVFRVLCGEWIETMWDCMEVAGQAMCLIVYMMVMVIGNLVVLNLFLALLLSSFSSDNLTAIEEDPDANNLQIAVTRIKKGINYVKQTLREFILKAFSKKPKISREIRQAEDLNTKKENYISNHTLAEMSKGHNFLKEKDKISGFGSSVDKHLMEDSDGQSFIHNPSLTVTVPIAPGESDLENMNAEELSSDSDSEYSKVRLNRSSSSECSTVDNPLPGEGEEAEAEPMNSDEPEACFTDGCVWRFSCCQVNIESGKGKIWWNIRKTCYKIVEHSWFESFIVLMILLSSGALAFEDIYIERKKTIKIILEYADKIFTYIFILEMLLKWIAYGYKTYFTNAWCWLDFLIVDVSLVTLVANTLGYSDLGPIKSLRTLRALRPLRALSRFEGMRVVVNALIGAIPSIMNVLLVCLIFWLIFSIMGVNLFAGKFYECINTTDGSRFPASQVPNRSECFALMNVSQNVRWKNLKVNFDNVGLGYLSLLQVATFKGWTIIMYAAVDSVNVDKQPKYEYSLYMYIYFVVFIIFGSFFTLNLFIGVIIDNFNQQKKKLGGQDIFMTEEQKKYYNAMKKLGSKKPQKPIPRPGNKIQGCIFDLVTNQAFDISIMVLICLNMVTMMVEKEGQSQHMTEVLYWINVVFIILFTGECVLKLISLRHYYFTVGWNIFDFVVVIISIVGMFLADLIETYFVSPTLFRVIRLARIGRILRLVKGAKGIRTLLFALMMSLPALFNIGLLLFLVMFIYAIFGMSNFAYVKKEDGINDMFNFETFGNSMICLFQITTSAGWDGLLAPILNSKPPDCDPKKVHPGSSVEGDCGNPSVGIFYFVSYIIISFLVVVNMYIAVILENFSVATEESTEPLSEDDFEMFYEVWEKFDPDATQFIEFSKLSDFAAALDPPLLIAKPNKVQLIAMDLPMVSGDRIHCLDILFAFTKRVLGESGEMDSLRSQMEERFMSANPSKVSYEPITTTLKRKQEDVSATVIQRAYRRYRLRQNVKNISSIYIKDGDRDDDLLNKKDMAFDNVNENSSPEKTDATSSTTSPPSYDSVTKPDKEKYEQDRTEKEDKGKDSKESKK
row,IC50 [µM],SMILES
1,≤ 2,COc1cc(C(=O)N2CCC3(CC2)CC(OC)c2ccccc2O3)ccc1OC(C)C (stereo not drawn) [Compound 142]
2,> 5,CCc1ccc(C(=O)N2CCC3(CC2)C[C@@H](OC(C)C)c2cc(F)ccc2O3)nc1 [Compound 111]
3,≤ 2,COc1cc(C(=O)N2CCC3(CC2)C[C@@H](OC(C)C)c2cc(F)ccc2O3)ccc1O[C@@H]1CCOC1 [Compound 155]
4,> 5,CC(C)Oc1ccc(C(=O)N2CCC3(CC2)C[C@@H](OC(C)C)c2ccccc2O3)cn1 [Compound 124]
5,> 5,CC(C)S(=O)(=O)c1ccc(C(=O)N2CCC3(CCc4ccccc4O3)CC2)cc1 [Compound 39]
6,≤ 2,COc1ccc(C(=O)N2CCC3(CC2)C[C@H](OC(C)C)c2ccccc2O3)cc1C [Compound 133]
7,≤ 2,COc1ccccc1C(=O)N1CCC2(CC1)CC(OC)c1ccccc1O2 (stereo not drawn) [Compound 113]
8,2 to 5,CC(C)OC1CC2(CCN(C(=O)c3ccc(S(=O)(=O)CC4CC4)cn3)CC2)Oc2ccc(F)cc21 (stereo not drawn) [Compound 30]
9,≤ 2,CC(C)Nc1ccc(C(=O)N2CCC3(CC2)C[C@@H](OC(C)C)c2cc(F)ccc2O3)nc1 [Compound 46]
10,≤ 2,CCc1ccc(C(=O)N2CCC3(CC2)C[C@@H](OC(C)C)c2cc(F)ccc2O3)cc1OC [Compound 126]
11,> 5,CNCc1cc(C(=O)N2CCC3(CC2)C[C@@H](OC(C)C)c2cc(F)ccc2O3)ccc1OC(C)C [Compound 15]
12,≤ 2,COc1cc(C(=O)N2CCC3(CC2)C[C@@H](OC(C)C)c2cc(F)ccc2O3)ccc1C(C)(C)O [Compound 10]
13,2 to 5,CC(C)O[C@H]1CC2(CCN(C(=O)c3ccc4[nH]ncc4c3)CC2)Oc2ccccc21 [Compound 65]
14,≤ 2,CCOC1Cc2ccccc2OC12CCN(C(=O)c1ccc(OC(C)C)c(OC)c1)CC2 (stereo not drawn) [Compound 100]
15,> 5,CC(C)O[C@@H]1CC2(CCN(C(=O)c3ccc(N(C)CCN(C)C)cn3)CC2)Oc2ccc(F)cc21 [Compound 97]
16,≤ 2,CC(C)O[C@@H]1CC2(CCN(C(=O)c3ccccc3OC(F)(F)F)CC2)Oc2ccc(F)cc21 [Compound 131]
17,≤ 2,Cc1cc(C(=O)N2CCC3(CC2)C[C@@H](OC(C)C)c2ccccc2O3)ccc1OC(C)C [Compound 72]
18,≤ 2,CC(C)Oc1ccc(C(=O)N2CCC3(CC2)C[C@@H](OC(C)C)c2ccccc2O3)cc1F [Compound 140]
